Results: article PMC12117180, “DNA‐Binding Properties of Non‐Intercalating Water‐Soluble Organometallic Ir(III) Luminophores” (Chemistry (Weinheim an Der Bergstrasse, Germany), 2025)

Key:
[1] = Solubility limits in buffer from saturated solutions; type: physicochemical
Procedure: We next estimated the solubility limits of the complexes in buffer (25 mM MOPS, pH 7.0, 50 mM NaCl) from saturated solutions, using the molar absorption coefficients in Table S4 (see also Figures S14–18). […] These values mirror the trend predicted (via logP^[ [39] ^]) for the relative hydrophobicities of the cyclometalating ligands, which is ultimately controlled by the ligand substituent (H vs Me vs OMe vs Cl vs OCF3).

[2] = system: fish sperm DNA (FSDNA); experiment: UV-visible titrations with fish sperm DNA, multiple independent binding sites (MIS) model; details: 25 mM MOPS, 50 mM NaCl, pH 7.0, 25 °C; for K (apparent DNA-binding affinity): association constant
Procedure: We then studied the interactions of the complexes with double‐stranded DNA using UV‐visible titrations. Briefly, solutions of 44.14, 31.52, 35.17, 37.55, and 29.62 µM for the five complexes [Ir(L1‐5)2(en)]Cl, respectively, were titrated (in duplicate) with fish sperm DNA (FSDNA) at 25 °C (Figure 7 and Figures S19–22). The interactions between these complexes and DNA turned out not to involve a single type of binding site (vide infra). Nevertheless, the data from the UV‐visible titrations were provisionally analyzed globally using the multiple independent binding sites (MIS) model to determine apparent binding affinities and apparent binding site sizes (Table 4).
All solutions were prepared by dissolving solids in a buffer with stirring, then filtration through a 0.22 µm PES filter to remove solid particles and ensure uniform, saturated solutions before titration. Concentrations were determined using extinction coefficients. MOPS buffer was prepared by dissolving MOPS (3‐(N‐morpholino)propanesulfonic acid, NaCl (all obtained from Fisher and used as supplied) in deionized water (Elga Purelab Flex), adjusting the pH to 7.0 using a NaOH solution (pH of the buffer was determined using a Hanna Instruments pH211 microprocessor pH meter with a Bioblock Scientific pH probe) and making up the solution to 0.5 liter. A stock solution of fish sperm DNA was prepared by dissolving approximately 0.1 g of fish sperm DNA in 10 mL of the buffer. The resulting solution was dialyzed (3.5 kDa MWCO, Visking, Medicell International Ltd) against 0.5 liters of buffer. Following dialysis, the DNA concentration was determined using UV‐visible spectroscopy using a molar absorption coefficient ε260 nm = 12 800 M^−1 cm^−1.^[ [37] ^] Spectra and titrations were plotted in OriginLab Origin 2019b. The titration data were analyzed globally for each complex using an in‐house written version of the multiple independent binding sites model which also explicitly takes changing ligand concentrations into account.^[ [49] ^]

[3] = ITC dilution experiments (self-aggregation); type: physicochemical
From the text: To explore whether multiple binding modes are indeed present for these complexes interacting with DNA, we turned to isothermal titration calorimetry (ITC). ITC typically involves titrating a relatively concentrated solution of the binder into a more dilute solution of DNA (instead of titrating a relatively concentrated DNA solution into a more dilute solution of the binder). Therefore, the possible self‐aggregation of the DNA binders was explored through dilution experiments in which solutions of a complex at representative concentrations in buffer (25 mM MOPS, pH 7.0, 50 mM NaCl) were diluted into matched buffer in the calorimeter cell.
Further experiments at different complex concentrations confirm this sigmoidal behavior of the dilution heat effects around a critical concentration. […] Nevertheless, self‐assembled nanoparticles of organic fluorophores with micromolar CACs have been reported.^[ [43] ^]
CACs are typical for cooperative aggregation processes, such as micellization, and we therefore interpret the data as [Ir(L1)2(en)]Cl cooperatively self‐aggregating in these buffer conditions (25 mM MOPS, pH 7.0, 50 mM NaCl). While it is known that the determination of aggregation numbers from titration calorimetry data is challenging, other thermodynamic parameters are readily available. […] The molar enthalpy for self‐aggregation of −92 kJ mol^−1 (difference between average pre‐ and post‐CAC heat effects) indicates a highly exothermic self‐aggregation process accompanied by a T×Δ°S aggregation of […]. […]
Buffers employed in the experiments were 50 mM NaCl and 25 mM MOPS (adjusted to pH 7 with NaOH) and 5 mM NaCl and 25 mM MOPS (adjusted to pH 7 with NaOH). […] Concentrations of solutions of complexes and of DNA were determined using UV‐visible spectroscopy. […]

[4] = system: FSDNA; experiment: Isothermal titration calorimetry of DNA binding, two types of independent binding sites; design: species or system fish; details: 25 mM MOPS, 5 mM NaCl, pH 7.0, 25 °C; for K A1 / n A1: high-affinity site; for K B1 / n B1: low-affinity site
Procedure: Cooperative self‐aggregation of DNA binders in combination with DNA binding makes data analysis complex because of the presence of coupled equilibria.^[ [46] ^] In the case of aggregation of charged species, the aggregation process tends to be very sensitive to salt concentration. We therefore studied self‐aggregation in buffer at a lower salt concentration (25 mM MOPS, pH 7.0, 5 mM NaCl) and found no indications of self‐aggregation. We therefore opted to carry out the ITC experiments in a buffer with a reduced salt concentration of 5 mM. Titrations were carried out in two parts, viz. a first titration focussing on the first binding event followed by a second titration focussing on the second binding event (Figures S23–25 with complex and DNA concentrations for each individual titration in Table S5). Figures S23 and S25 clearly show two binding events, as anticipated from UV‐visible titrations.
We analyzed the data using a model involving two types of independent binding sites, correcting for dilution heat effects in our custom data analysis software I2CITC^[ [45], [47] ^] […] The complexes also bind to a second lower affinity type of binding site with a size of approximately 2–3 basepairs with an affinity K B1 of the order of 10^5 M^−1 in an exothermic process. Based on the combination of binding site size and the exothermic interaction, we attribute the low‐affinity binding event to non‐specific binding of the cationic complexes to negatively charged DNA, supported by hydrophobic interactions between complexes. The binding site size of the higher affinity binding site exceeds the dimensions of the complexes of around five base pairs, as estimated from the docking studies (vide supra). […] Intriguingly, the relatively low ΔH A1 is in line with groove binding.^[ [48] ^]
Buffers employed in the experiments were 50 mM NaCl and 25 mM MOPS (adjusted to pH 7 with NaOH) and 5 mM NaCl and 25 mM MOPS (adjusted to pH 7 with NaOH). Solutions of DNA were prepared by diluting the DNA stock solutions (see UV‐visible titrations) as required. Complex solutions were prepared by dissolving 5 mg of the complex in 5 mL of buffer, then filtered through a 0.22 µm PES filter to ensure uniform solutions for ITC titration. Concentrations of solutions of complexes and of DNA were determined using UV‐visible spectroscopy. Calorimetric titrations were carried out at 25 °C on a MicroCal PEAQ‐ITC microcalorimeter (Malvern Instruments Ltd., Worcestershire, UK). The instrument was operated by applying a reference power of 10 μcal/s in high‐feedback mode, stirring the sample cell contents at 750 rpm, with a pre‐injection initial delay of 60 s. Solutions of complexes were loaded into the calorimeter injection syringe and DNA solutions were loaded into the sample cell. All experiments involved an initial injection of 0.4 µL in 0.8 s followed by 18 further injections of 2.0 µL in 4.0 s per injection into the calorimeter sample cell. Injections were spaced by at least 90 s to allow full recovery of the baseline. Raw data were treated using MicroCal PEAQ‐ITC Analysis Software (1.41) to generate both integrated heat effects per injection (ΔQ) and molar heat effects per injection (ΔH). Further data analysis was carried out using I2CITC.^[ [45], [47] ^]

[5] = system: FSDNA; experiment: Steady-state and time-resolved luminescence in absence and presence of FSDNA; design: species or system fish; details: for luminescence intensity enhancement following the addition of DNA: λex = 410 nm, 25 mM MOPS, pH 7.0, 50 mM NaCl, uncorrected for dilution; for increase (lifetime) on DNA binding: time-resolved luminescence, with vs without FSDNA
Procedure: Finally, the influence of DNA binding on the luminescence properties of the complexes was investigated. Steady‐state fluorescence spectra (using λ ex = 410 nm) were recorded both in the absence and presence of FSDNA, using a buffer of 25 mM MOPS, pH 7.0, and 50 mM NaCl. First, the appearance and shape of the emission bands (Figure S26) were not influenced by binding to DNA; the position of the emission maxima and the peak shape were generally retained upon the addition of DNA. […] The time‐resolved luminescence measurements support the inhibition of excited state quenching processes leading to the observed increase in integrated intensity.
All reactions were performed with the use of a vacuum line and Schlenk techniques. Reagents were commercial grade and were used without further purification. ^1H, ^19F, and ^13C NMR spectra were recorded on a Bruker Avance dpx 500 MHz spectrometer and were recorded on d^6‐DMSO solutions. ^1H, ^13C{^1H} NMR chemical shifts (δ) were determined relative to internal tetramethylsilane, Si(CH3)4 and are given in ppm. Mass spectra were obtained by the staff at Cardiff University using a Waters Xevo G2‐XS QTof spectrometer. All photophysical data was obtained on a JobinYvon‐Horiba Fluorolog‐3 spectrometer fitted with a JY TBX picosecond photodetection module. The pulsed source was a Nano‐LED configured for 295 nm output operating at 1 MHz. Luminescence lifetime profiles were obtained using the JobinYvon–Horiba FluoroHub single photon counting module and the data fits yielded the lifetime values using DAS6 deconvolution software. IR spectra were recorded on an ATR‐equipped Shimadzu IRAffinity‐1 spectrophotometer. UV‐vis data were recorded as solutions on a Perkin Elmer Lamda20 spectrophotometer. The pH values of aqueous solutions were determined using a Hanna Instruments pH211 microprocessor pH meter with a Bioblock Scientific pH electrode.

[6] = buffer 25 mM MOPS, pH 7.0, 50 mM NaCl, saturated solutions, estimated via molar absorption coefficients

Row | Solubility limit ([1]; pH 7) [µM] | critical aggregation concentration (CAC) ([3]; 25 mM MOPS, pH 7.0, 50 mM NaCl, 25 °C) [µM] | molar enthalpy for self‐aggregation ([3]; difference between average pre‐ and post‐CAC heat effects) [kJ/mol] | equilibrium constant for aggregation ([3]; from CAC, 25 mM MOPS, pH 7.0, 50 mM NaCl) [M⁻¹] | SMILES | binding site size (apparent) [2] [base pairs] | K (apparent DNA-binding affinity) [2] | K A1 [4] | n A1 [4] [bp^−1] | K B1 [4] | n B1 [4] | Solubility limit [1, 6] [µM] | luminescence intensity enhancement following the addition of DNA [5] | increase (lifetime) on DNA binding [5] [%]
1 | 978 | 2.1 | -92 | 480000 | NCCN.[Cl-].[Ir+3].[c-]1ccccc1-c1nc2ccccc2s1.[c-]1ccccc1-c1nc2ccccc2s1 [[Ir(L1)2(en)]Cl] | 0.70 ± 0.15 | 4.3 ± 5.3 10^5 M^−1 | 239 10^6 M^−1 | 0.06 | 0.14 10^6 M^−1 | 0.46 | – | – | –
2 | – | – | – | – | Cc1c[c-]c(-c2nc3ccccc3s2)cc1.Cc1c[c-]c(-c2nc3ccccc3s2)cc1.NCCN.[Cl-].[Ir+3] [[Ir(L2)2(en)]Cl] | 0.64 ± 0.05 | 4.2 ± 3.7 10^5 M^−1 | 132 10^6 M^−1 | 0.03 | 0.41 10^6 M^−1 | 0.57 | 327 | – | –
3 | – | – | – | – | COc1c[c-]c(-c2nc3ccccc3s2)cc1.COc1c[c-]c(-c2nc3ccccc3s2)cc1.NCCN.[Cl-].[Ir+3] [[Ir(L3)2(en)]Cl] | 0.76 ± 0.04 | 4.6 ± 2.3 10^5 M^−1 | 19 10^6 M^−1 | 0.07 | 0.13 10^6 M^−1 | 0.31 | 739 | 40–65% | –
4 | – | – | – | – | Clc1c[c-]c(-c2nc3ccccc3s2)cc1.Clc1c[c-]c(-c2nc3ccccc3s2)cc1.NCCN.[Cl-].[Ir+3] [[Ir(L4)2(en)]Cl] | 0.43 ± 0.19 | 0.8 ± 0.7 10^5 M^−1 | – | – | – | – | 100 | – | 75
5 | – | – | – | – | FC(F)(F)Oc1c[c-]c(-c2nc3ccccc3s2)cc1.FC(F)(F)Oc1c[c-]c(-c2nc3ccccc3s2)cc1.NCCN.[Cl-].[Ir+3] [[Ir(L5)2(en)]Cl] | 0.92 ± 0.18 | 0.6 ± 0.3 10^5 M^−1 | – | – | – | – | 75 | 40–65% | 98
